# Structures can show the parent of a compound that is named as a salt.
# Tested on: STING activation (IFNβ release) in iBMDMs
# Assay: IFNβ release ELISA after STING ligand (or LPS) stimulation, iBMDMs
# Assay type: cell-based, mouse
# Settings: not given
# Outline: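 iBMDMs were stimulated with a STING ligand such as 3′3′-cGAMP, or with LPS. Secreted IFNβ in culture medium was measured by commercial mouse or human IFNβ ELISA.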
row,Compound,fold increase in IFN-β release [fold]
1,OCCOc1ccc(/C(=C(/CCCl)c2ccccc2)c2ccccc2)cc1 [Ospemifene],0.10

# Same assay, conditions: 16 h, 10 µM
row,Compound,fold increase in IFN-β release [fold]
1,"CCCCCCCCc1ccc(CCC(N)(CO)CO)cc1 [Fingolimod (FTY720) HCl, Fingolimod]",0.77

# Same assay, conditions: iBMDMs; 3′3′-cGAMP 10 μg/ml, 16 hours; compound 10 μM
row,Compound,fold increase in IFN-β release [fold]
1,CC1=C(C(=O)Nc2cc3cn[nH]c3cc2F)C(c2ccc(C(F)(F)F)cc2)CC(=O)N1 (stereo not shown) [GSK429286A],2.79
2,O=C1CC[C@@]2(O)[C@H]3Cc4ccc(O)c5c4[C@@]2(CCN3CC2CC2)[C@H]1O5 [Naltrexone HCl],3.12
3,"CCCS(=O)(=O)Nc1ccc(F)c(C(=O)c2c[nH]c3ncc(-c4ccc(Cl)cc4)cc23)c1F [Vemurafenib (PLX4032, RG7204), Vemurafenib]",0.59
4,Oc1nc(-c2ccc(C(F)(F)F)cc2)nc2c1CSCC2 [XAV-939],1.00
5,COc1ccccc1Oc1c(NS(=O)(=O)c2ccc(C(C)(C)C)cc2)nc(-c2ncccn2)nc1OCCO [Bosentan Hydrate],1.20
6,Cc1ccc(S(=O)(=O)Cc2nc(-c3ccc(C(=O)NCc4cccnc4)cc3)oc2C)cc1 [STF-118804],1.41
7,"C[C@@H]1CCN(C(=O)CC#N)C[C@@H]1N(C)c1ncnc2[nH]ccc12 [Tofacitinib (CP-690550, Tasocitinib), Tofacitinib]",1.49
8,O=C(Nc1cc(C(F)(F)F)cc(C(F)(F)F)c1)c1cc(Cl)ccc1O [IMD 0354],0.86
9,"CO[C@H]1C[C@@H]2CC[C@@H](C)[C@@](O)(O2)C(=O)C(=O)N2CCCC[C@H]2C(=O)O[C@H]([C@H](C)C[C@@H]2CC[C@@H](OP(C)(C)=O)[C@H](OC)C2)CC(=O)[C@H](C)/C=C(\C)[C@@H](O)[C@@H](OC)C(=O)[C@H](C)C[C@H](C)/C=C/C=C/C=C/1C [Ridaforolimus (Deforolimus, MK-8669), Ridaforolimus]",0.58
10,VU 0357121,1.49
11,CNC(=C[N+](=O)[O-])NCCSCc1ccc(CN(C)C)o1 [Ranitidine],2.87
12,COc1cc2nc(N3CCN(C(=O)C4COc5ccccc5O4)CC3)nc(N)c2cc1OC (stereo not shown) [Doxazosin Mesylate],0.69
13,S3I-201,0.88
14,O=C(/C=C\n1cnc(-c2cc(C(F)(F)F)cc(C(F)(F)F)c2)n1)N1CC(F)(F)C1 [KPT-276],0.54
15,CC[C@H](C)C(=O)O[C@H]1C[C@@H](C)C=C2C=C[C@H](C)[C@H](CC[C@@H]3C[C@@H](O)CC(=O)O3)[C@H]21 [Lovastatin],1.22
16,C=CC(=O)Nc1cccc(Nc2nc(Nc3ccc(Oc4ccnc(C(=O)NC)c4)cc3)ncc2F)c1 [CNX-774],0.73
17,"OC[C@H]1O[C@@H](c2ccc(Cl)c(Cc3ccc(O[C@H]4CCOC4)cc3)c2)[C@H](O)[C@@H](O)[C@@H]1O [Empagliflozin (BI 10773), Empagliflozin]",0.57
18,CCN(CC)CCNC(=O)c1cc(Cl)c(N)cc1OC [MetoclopraMide HCl],2.14
19,CC1(C)CCC(CN2CCN(c3ccc(C(=O)NS(=O)(=O)c4ccc(NCC5CCOCC5)c([N+](=O)[O-])c4)c(Oc4cnc5[nH]ccc5c4)c3)CC2)=C(c2ccc(Cl)cc2)C1 [ABT-199 (GDC-0199)],1.78

row,Compound,fold increase in IFN-β release [fold]
1,CCOC(=O)c1ccc(N2NC(=O)/C(=C/c3ccc([N+](=O)[O-])o3)C2=O)cc1 [PYR-41],1.13
2,CC(C)(Cc1ccc2ccccc2c1)NC[C@@H](O)COc1cccc(Cl)c1C#N [NPS-2143],0.99
3,Cc1ccc2nc(NC(=O)CSc3nc4c(c(=O)n3-c3ccccc3)SCC4)sc2c1 [IWP-2],3.84
4,"Cc1c(F)cc(C(=O)NC2CC2)cc1-c1ccc(C(=O)NCC(C)(C)C)cn1 [Losmapimod (GW856553X), Losmapimod]",1.20
5,Cc1cc2c(C(C)C)c(O)c(O)c(C=O)c2c(O)c1-c1c(C)cc2c(C(C)C)c(O)c(O)c(C=O)c2c1O [AT101],0.13
6,O=C(c1ccc(Nc2nccc(-c3cc4ccccc4s3)n2)cc1)N1CCC(N2CCCC2)CC1 [IKK-16 (IKK Inhibitor VII)],1.16
7,"O=C(Nc1nc2cccc(-c3ccc(CN4CCS(=O)(=O)CC4)cc3)n2n1)C1CC1 [Filgotinib (GLPG0634), Filgotinib]",2.35
8,CCn1c(=O)c2c(nc(/C=C/c3ccc(OC)c(OC)c3)n2C)n(CC)c1=O [Istradefylline],1.90
9,OG-L002,1.06
10,"CNC(=O)c1cc(Oc2ccc(NC(=O)Nc3cc(C(C)(C)C)nn3-c3ccc4ncccc4c3)c(F)c2)ccn1 [DCC-2036 (Rebastinib), Rebastinib]",1.71
11,C=C[C@@]1(C)CC(=O)[C@]2(O)[C@@]3(C)[C@@H](O)CCC(C)(C)[C@@H]3[C@H](O)[C@H](OC(C)=O)[C@@]2(C)O1 [Forskolin],0.81
12,O=C(N/N=C/c1ccc(O)c(O)c1)c1cc2ccccc2cc1O [Dynasore],1.62
13,CN1CCC(CNc2ccc3ncc(-c4cccc(OC(F)(F)F)c4)n3n2)CC1 [SGI-1776 free base],0.65
14,C[C@@H]1O[C@@H](O[C@H]2C[C@@H](O)[C@]3(CO)[C@H]4[C@H](O)C[C@]5(C)[C@@H](C6=CC(=O)OC6)CC[C@]5(O)[C@@H]4CC[C@]3(O)C2)[C@H](O)[C@H](O)[C@H]1O [Ouabain],1.08
15,"CC(/C=C/C(=O)NO)=C\[C@@H](C)C(=O)c1ccc(N(C)C)cc1 [Trichostatin A (TSA), Trichostatin A]",0.39
16,CC(=O)O[C@]1(C(C)=O)CC[C@H]2[C@@H]3C=C(Cl)C4=CC(=O)[C@@H]5C[C@@H]5[C@]4(C)[C@H]3CC[C@@]21C [Cyproterone Acetate],1.24
17,Cc1cc(OCc2nnc(SC3CCCC3)n2-c2cccnc2)ccc1-c1ccc(S(C)(=O)=O)cc1 [NMS-873],1.90
18,CN(C)C(=O)[C@H](O)[C@H](Cc1ccccc1)NC(=O)c1cc2cc(Cl)ccc2[nH]1 [CP-91149],0.14
19,CC(C)N(CCC(c1ccccc1)c1cc(CO)ccc1O)C(C)C (stereo not shown) [5-hydroxymethyl Tolterodine],1.10

row,Compound,fold increase in IFN-β release [fold]
1,CCCSc1nc(N[C@@H]2C[C@H]2c2ccc(F)c(F)c2)c2nnn([C@@H]3C[C@H](OCCO)[C@@H](O)[C@H]3O)c2n1 [Ticagrelor],1.70
2,C[C@H](CS)C(=O)N1CCC[C@H]1C(=O)O [Captopril],2.62
3,KX2-391,0.77
4,Cc1[nH]c(/C=C2\C(=O)Nc3ccc(S(=O)(=O)N(C)c4cccc(Cl)c4)cc32)c(C)c1C(=O)N1CCN(C)CC1 [SU11274],0.75
5,"C1=C/COCc2cc(ccc2OCCN2CCCC2)Nc2nccc(n2)-c2cccc(c2)COC/1 [Pacritinib (SB1518), Pacritinib]",1.58
6,"Cn1cnc2c(F)c(Nc3ccc(Br)cc3Cl)c(C(=O)NOCCO)cc21 [Selumetinib (AZD6244), Selumetinib]",0.50
7,"COc1cc(Nc2ncc(F)c(Nc3ccc4c(n3)N(COP(=O)(O)O)C(=O)C(C)(C)O4)n2)cc(OC)c1OC [Fostamatinib (R788), Fostamatinib]",0.69
8,O=C1C(=O)N(Cc2ccc(Cl)c(Cl)c2)c2ccccc21 [Apoptosis Activator 2],0.17
9,O=C1NC(=O)C(c2ccccc2[N+](=O)[O-])=C1Nc1ccc(O)c(Cl)c1 [SB415286],1.15
10,"COc1cc(OC)c(/C=C/S(=O)(=O)Cc2ccc(OC)c(NCC(=O)O)c2)c(OC)c1 [Rigosertib (ON-01910), Rigosertib]",0.96
11,"CC(C)CCNC(=O)[C@H](CC(C)C)NC(=O)[C@H]1O[C@@H]1C(=O)O [Loxistatin Acid (E-64C), Loxistatin Acid]",0.70
12,Cc1cc(C)nc(NS(=O)(=O)c2ccc(NC(=S)NC(=O)COc3ccc(Br)cc3Cl)cc2)n1 [ZCL278],2.52
13,"NC(=O)C1CCCc2c1[nH]c1ccc(Cl)cc21 (stereo not shown) [EX 527 (Selisistat), Selisistat]",0.98
14,O=c1[nH]c2ccc(Cl)cc2c(N[C@@H]2CN3CCC2CC3)c1-c1nc2ccccc2[nH]1 [CHIR-124],1.30
15,COc1cc(C(=O)NC2CCN(C)CC2)ccc1Nc1ncc2c(n1)N(C1CCCC1)CC(F)(F)C(=O)N2C [Ro3280],2.16
16,COc1ccc2cc(-c3nc(-c4ccc([S+](C)[O-])cc4)[nH]c3-c3ccncc3)ccc2c1 (stereo not shown) [Tie2 kinase inhibitor],2.04
17,O=S(=O)(c1ccccc1)c1cnc2c(N3CCNCC3)cccc2c1 [SB742457],0.65
18,CCCC(=O)Nc1cccc(NC(=O)c2ccccc2Br)c1 [ML161],0.95

# From patent US11179412B2, “Methods of treating conditions involving elevated inflammatory response” (University of Pittsburgh—Of the Commonwealth System of …, priority 2017, dated 2021)
